From US11773127B2, “Compounds and methods for treating bacterial infections” (Washington University, priority 2017, dated 2023)
Read-outs that look alike come from different tables or passages of the source.

Target: T1, FmlHLD (Escherichia coli, UniProt P77588)
T1 construct: 6xHis (C); made in house; host or cells: E. coli C600, periplasm, pTRC99a
Assay: biochemical
Format: binding, E. coli
Settings: for inhibitory potency against FmlH, in words: ELISA-based competition assay; for PI100 (percent inhibition): galactoside at 100 μM, 100 µM
Experimental: Thereafter, wells were incubated with 200 μl blocking buffer (PBS+1% BSA) for 2 hours at 23° C., followed by incubation with 100 μl biotinylated FmlHLD diluted in blocking buffer to 20 μg/ml in the presence or absence of the tested compounds for 1 hr at 23° C. After washing 3× with PBS+0.05% TWEEN-20, 100 μl Streptavidin-HRP conjugate (BD Biosciences; 1:2000 dilution in blocking buffer) was added to each well for 1 hr at 23° C. After a final round of washing, plates were developed with 100 μl Tetramethylbenzidine (TMB, BD Biosciences) substrate, quenched within 1-2 min with 50 μl […], and absorbance measured at 450 nm.
Select top hit compounds and few low-scoring analogs from the virtual screening, as well as synthetic galactosides, were tested in the ELISA-based competition assay for their ability to inhibit binding of FmlHLD to ds-BSM. The ELISA assay was performed using the protocol described in Example 18. […] All compounds were tested at 100 μM; a subset was tested at 10 μM; and the strongest subset was additionally tested at 1 μM. […] Percent inhibition (PI) values are reported as the mean with standard error of the mean for galactosides tested at 100 μM (PI100), 10 μM (PI10), and 1 μM (PI1) in the ELISA-based competition assay. […] The “thio” designation indicates a sulfur linkage between the sugar and the aglycone group, the “phospho” designation indicates a phosphate group attached the C6-hydroxyl group on the sugar, and the “uro” designation indicates galacturonide as the sugar.
The ELISA assay was performed using the protocol described in Example 18. All compounds were tested at 1 μM and a subset was additionally tested at 100 nM. Average percent inhibition (PI) values are reported for compounds tested at 1 μM (PI1) and 100 nM (PI0.1).
Briefly, 1 μg bovine submaxillary mucin (Sigma) in 100 uL PBS were incubated with Immulon 4HBX 96-well plates overnight prior to treatment with 1 mU Arthrobacter ureafaciens sialidase for 1 hour at 37° C. to remove terminal sialic acid sugars. Wells were then blocked with 200 μL PBS+1% BSA for 2 hours at room temperature. Biotinylated FmlH^LD was diluted to 20 μg/mL in blocking buffer and incubated in the presence or absence of compounds serially diluted 2× down eight rows for 1 hour at room temperature. Wells were washed three times with PBS 0.05% TWEEN-20 then incubated with 100 μL of streptavidin-HRP conjugate (BD Biosciences; 1:2,000 dilution in blocking buffer) for one hour. After three additional PBS+0.05% TWEEN washes, plates were developed with 100 μL of tetramethylbenzidine (BD Biosciences) substrate and quenched with 50 μL of 1 M H2SO4. Total bound portion concentration was measured by the absorbance at 450 nm. IC50s were determined using the Graphpad Prism software.
The compounds synthesized herein were tested in the ELISA-based competition assay for their ability to inhibit binding of FmlHLD to ds-BSM. The ELISA assay was performed using the protocol described in Example 18. Compounds were tested at […], 1 μM, and 100 nM. as indicated on the table. […] ND means the corresponding value was not determined for this summary (but may be available elsewhere in the Examples).

[1] = read-out: PI100 (percent inhibition), galactoside at 100 μM, mean with standard error of the mean
[2] = read-out: % Inhibition at [μM] [1], compound at 1 μM, inhibition of FmlHLD binding to ds-BSM
[3] = read-out: PI(1) (average percent inhibition), compound at 1 μM, Table 4
[4] = IC50 (μM), Table 5, Gal and GalNAc inhibition of FmlH
[5] = read-out: % Inhibition at [μM] [100], compound at 100 μM, inhibition of FmlHLD binding to ds-BSM
[6] = read-out: % Inhibition at [μM] [0.1], compound at 0.1 μM (100 nM), inhibition of FmlHLD binding to ds-BSM
[7] = read-out: PI (0.1) (average percent inhibition), compound at 100 nM, Table 4
[8] = IC50, inhibition of FmlHLD binding to ds-BSM
[9] = mean with standard error of the mean
[10] = read-out: % Inhibition at [μM] [10], compound at 10 μM, inhibition of FmlHLD binding to ds-BSM

T1 sequence (P77588 25-182): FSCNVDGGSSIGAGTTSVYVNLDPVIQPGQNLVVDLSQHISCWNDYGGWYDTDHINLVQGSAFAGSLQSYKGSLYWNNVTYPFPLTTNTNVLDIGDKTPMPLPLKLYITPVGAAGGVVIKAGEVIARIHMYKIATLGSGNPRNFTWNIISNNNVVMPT

O=C(O)c1cccc(-c2ccccc2O[C@H]2O[C@H](CO)[C@H](O)[C@H](O)[C@H]2O)c1 [Compound 29α, 2′-(α/β-D-galactopyranosyloxy)-[1,1′-Biphenyl]-3-carboxylic acid]
inhibition at 100 µM [1]: 26.2 ± 5.9%

CC(=O)N[C@H]1[C@H](Oc2ccc3ncccc3c2)O[C@H](CO)[C@H](O)[C@@H]1O [AM1184, N-((2S,3R,4R,5R,6R)-4,5-dihydroxy-6-(hydroxymethyl)-2-(quinolin-6-yloxy)tetrahydro-2H-pyran-3-yl)acetamide]
inhibition at 1 µM [2]: 7.56%
inhibition at 1 µM [3]: 7.56%

CC(=O)N[C@H]1[C@H](Oc2ccccc2-c2cccc(O)c2)O[C@H](CO)[C@H](O)[C@@H]1O [AM2021, N-((2S,3R,4R,5R,6R)-4,5-dihydroxy-2-((3′-hydroxy-[1,1′-biphenyl]-2-yl)oxy)-6-(hydroxymethyl)tetrahydro-2H-pyran-3-yl)acetamide]
inhibitory potency against FmlH, in words: equal or slightly reduced potency
IC50 [4]: 0.7 µM
inhibition at 1 µM [2]: 17.7%
inhibition at 1 µM [3]: 17.7%

OC[C@H]1O[C@@H](Oc2ccc(-c3ccccc3)cc2)[C@H](O)[C@@H](O)[C@H]1O [Compound 114bf2]
inhibition at 100 µM [5]: 30%

CC(=O)N[C@H]1[C@H](Oc2ccccc2-c2cccc(OS(C)(=O)=O)c2)O[C@H](CO)[C@H](O)[C@@H]1O [AM2078, 2′-(((2S,3R,4R,5R,6R)-3-acetamido-4,5-dihydroxy-6-(hydroxymethyl)tetrahydro-2H-pyran-2-yl)oxy)-[1,1′-biphenyl]-3-yl methanesulfonate]
inhibitory potency against FmlH, in words: equal or slightly reduced potency
IC50 [4]: 0.89 µM
inhibition at 0.1 µM [6]: 2%
inhibition at 1 µM [2]: 32.5%
inhibition at 0.1 µM [7]: 2%
inhibition at 1 µM [3]: 32.5%

CC(=O)N[C@H]1[C@H](Oc2cccc(C)c2-c2cccc(NS(C)(=O)=O)c2)O[C@H](CO)[C@H](O)[C@@H]1O [AM2110]
IC50 [8]: 0.122 µM

COc1cc(-c2[o+]c3cc(O)cc(O)c3cc2O[C@@H]2O[C@H](CO)[C@H](O)[C@H](O)[C@H]2O)ccc1O [PeoG, reference compound]
inhibition at 100 µM [5]: 3.64%

OC[C@H]1O[C@@H](Oc2c[nH]c3ccccc23)[C@H](O)[C@@H](O)[C@H]1O [Compound 16β]
PI100 (percent inhibition) [9]: 21.7 ± 2.4%
inhibition at 100 µM [1]: 22%

OC[C@H]1O[C@H](Oc2ccc(-c3ccccc3)cc2)[C@H](O)[C@@H](O)[C@H]1O [Compound 114bf1]
inhibition at 10 µM [10]: 22.6%
inhibition at 100 µM [5]: 86.5%

OC[C@H]1O[C@@H](Oc2ccccc2Cl)[C@H](O)[C@@H](O)[C@H]1O [Compound 154c]
inhibition at 1 µM [2]: 7.95%
inhibition at 10 µM [10]: 20.7%
inhibition at 100 µM [5]: 90.5%

CC(=O)Nc1cccc(-c2ccccc2O[C@@H]2O[C@H](CO)[C@H](O)[C@H](O)[C@H]2NC(C)=O)c1 [AM2062, N-(2′-(((2S,3R,4R,5R,6R)-3-acetamido-4,5-dihydroxy-6-(hydroxymethyl)tetrahydro-2H-pyran-2-yl)oxy)-[1,1′-biphenyl]-3-yl)acetamide]
IC50 [4]: 0.31 µM
IC50 [8]: 0.623 µM
inhibition at 0.1 µM [6]: 14.8%
inhibition at 1 µM [2]: 67.9%
inhibition at 0.1 µM [7]: 14.8%
inhibition at 1 µM [3]: 67.9%

OC[C@H]1O[C@H](Oc2cccc3ccccc23)[C@H](O)[C@@H](O)[C@H]1O [Compound 115af1]
inhibition at 100 µM [5]: 28.1%

OC[C@H]1O[C@@H](Oc2cccc3ccccc23)[C@H](O)[C@@H](O)[C@H]1O [Compound 18β, 1-naphthalenyl α/β-D-galactopyranoside]
PI100 (percent inhibition) [9]: 45.9 ± 3.7%
inhibition at 100 µM [1]: 46%

OC[C@H]1O[C@@H](Oc2cc3c(O)cc(O)cc3[o+]c2-c2ccc(O)cc2)[C@H](O)[C@@H](O)[C@H]1O [PelG, reference compound]
inhibition at 100 µM [5]: 0.74%

Cc1cccc(O[C@@H]2O[C@H](CO)[C@H](O)[C@H](O)[C@H]2NS(C)(=O)=O)c1-c1cccc(NS(C)(=O)=O)c1 [Compound 3089, N-((2S,3R,4R,5R,6R)-4,5-dihydroxy-6-(hydroxymethyl)-2-((6-methyl-3′-(methylsulfonamido)-[1,1′-biphenyl]-2-yl)oxy)tetrahydro-2H-pyran-3-yl)methanesulfonamide]
IC50 (IC50 (μM), Table 6, sulfonamides 3078-3090): 3.5 µM

CC(=O)N[C@@H]1[C@@H](O)[C@@H](O)[C@@H](CO)O[C@H]1N(CC(=O)NC(C)(C)C)C(=O)c1cccc2cccnc12 [AM1165, N-((2R,3R,4R,5R,6R)-3-acetamido-4,5-dihydroxy-6-(hydroxymethyl)tetrahydro-2H-pyran-2 yl)-N-(2-“(tert-butylamino)-2-oxoethyl)quinoline-8-carboxamide]
inhibition at 1 µM [2]: 5.57%
inhibition at 1 µM [3]: 5.57%

OC[C@H]1O[C@@H](Oc2c[nH]c3ccccc23)[C@H](O)[C@@H](O)[C@H]1O [3-indoxyl Gal, reference compound]
inhibition at 100 µM [5]: 21.7%

Cc1c(C)c2ccc(O[C@@H]3O[C@H](CO)[C@H](O)[C@H](O)[C@H]3O)cc2oc1=O [Compound D715-0293, reference compound]
inhibition at 1 µM [2]: 10.2%
inhibition at 10 µM [10]: 19.8%
inhibition at 100 µM [5]: 89.2%

CC(C)(C)NC(=O)CN(C(=O)c1cccc2cccnc12)[C@@H]1O[C@H](CO)[C@H](O)[C@H](O)[C@H]1O [AM1181, N-(2-(tert-butylamino)-2-oxoethyl)-N-((2R,3R,4S,5R,6R)-3,4,5-trihydroxy-6-(hydroxymethyl)tetrahydro-2H-pyran-2-yl)quinoline-8-carboxamide]
inhibition at 1 µM [2]: 10.8%
inhibition at 1 µM [3]: 10.8%

CC(=O)N[C@H]1[C@H](Oc2ccccc2-c2cccc(C#N)c2)O[C@H](CO)[C@H](O)[C@@H]1O [AM2035, N-((2S,3R,4R,5R,6R)-2-((3′-cyano-[1,1′-biphenyl]-2-yl)oxy)-4,5-dihydroxy-6-(hydroxymethyl)tetrahydro-2H-pyran-3-yl)acetamide]
inhibitory potency against FmlH, in words: equal or slightly reduced potency
IC50 [4]: 0.97 µM
inhibition at 1 µM [2]: 20.9%
inhibition at 1 µM [3]: 20.9%

Cc1cc(=O)oc2cc(O[C@@H]3O[C@H](CO)[C@H](O)[C@H](O)[C@H]3O)ccc12 [MUG, reference compound]
inhibition at 1 µM [2]: 8.73%
inhibition at 10 µM [10]: 19.7%
inhibition at 100 µM [5]: 85.2%

COc1cc(OC)cc(O[C@@H]2O[C@H](CO)[C@H](O)[C@H](O)[C@H]2O)c1 [Compound 7β, 3,5-dimethoxyphenyl β-D-galactopyranoside]
PI100 (percent inhibition) [9]: 76.4 ± 2.4%
inhibition at 10 µM (read-out: PI10 (percent inhibition), galactoside at 10 μM, mean with standard error of the mean): 11.7 ± 2.7%
inhibition at 100 µM [1]: 76%

CC(=O)N[C@H]1[C@H](Oc2ccccc2-c2cccc([N+](=O)[O-])c2)O[C@H](CO)[C@H](O)[C@@H]1O [AM2030, N-((2S,3R,4R,5R,6R)-4,5-dihydroxy-6-(hydroxymethyl)-2-((3′-nitro-[1,1′-biphenyl]-2-yl)oxy)tetrahydro-2H-pyran-3-yl)acetamide]
inhibitory potency against FmlH, in words: equal or slightly reduced potency
IC50 [4]: 2.66 µM
inhibition at 1 µM [2]: 9.25%
inhibition at 1 µM [3]: 9.25%

OC[C@H]1O[C@@H](Oc2c[nH]c3cc(Cl)ccc23)[C@H](O)[C@@H](O)[C@H]1O [Compound 17β]
PI100 (percent inhibition) [9]: 41.2 ± 3.4%
inhibition at 100 µM [1]: 41%

COc1cc(OC)cc(O[C@@H]2O[C@H](CO)[C@H](O)[C@H](O)[C@H]2O)c1 [Compound 151d]
inhibition at 10 µM [10]: 11.7%
inhibition at 100 µM [5]: 76.4%
